Data as given in ChEMBL document CHEMBL1201862, “PubChem BioAssay data set” (2004).
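How tested: cells in 96-well plates exposed to compound for 48 hours at five concentrations. GI50 is the concentration that inhibits growth by half.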 Active and inactive are the calls of the source. Rule as the data show it: active = GI50 up to about 1.1 µM and inactive = higher.

Legend:
Experiment in all cases: NCI-60 cell line screen, 48 h
SF-295 = test system: SF-295
DU-145 = test system: DU-145
HCT-116 = test system: HCT-116
NCI/ADR-RES = test system: NCI/ADR-RES
SK-MEL-28 = test system: SK-MEL-28
SF-539 = test system: SF-539
U-251 = test system: U-251
MDA-MB-435 = test system: MDA-MB-435
MDA-MB-231 = test system: MDA-MB-231
NCI-H226 = test system: NCI-H226
HOP-92 = test system: HOP-92
Hs-578T = test system: Hs-578T
NCI-H460 = test system: NCI-H460
SR = test system: SR
PC-3 = test system: PC-3

Structure (SMILES)	GI50 (SF-295)	GI50 (DU-145)	GI50 (HCT-116)	GI50 (NCI/ADR-RES)	GI50 (SK-MEL-28)	GI50 (SF-539)	GI50 (U-251)	GI50 (MDA-MB-435)	GI50 (MDA-MB-231)	GI50 (NCI-H226)	GI50 (HOP-92)	GI50 (Hs-578T)	GI50 (NCI-H460)	GI50 (SR)	GI50 (PC-3)
Cc1cc2nc3c(C#N)c4c(c(Nc5ccc(Cl)cc5)n3c2cc1C)CCC4	> 100 µM (inactive)	26.5 µM (inactive)	16.7 µM (inactive)	22.6 µM (inactive)	22.1 µM (inactive)	27.1 µM (inactive)	18.9 µM (inactive)	33.5 µM (inactive)	20.8 µM (inactive)	22.9 µM (inactive)	23.6 µM (inactive)				
C/C(=N/NC(=S)Nc1ccc([N+](=O)[O-])cc1)c1cccc(/C(C)=N\NC(=S)Nc2ccc([N+](=O)[O-])cc2)n1	0.564 µM (active)		0.291 µM (active)	0.469 µM (active)	> 100 µM (inactive)	0.458 µM (active)	0.547 µM (active)	0.931 µM (active)	0.56 µM (active)	0.193 µM (active)	0.782 µM (active)	3.9 µM (inactive)	0.34 µM (active)	0.216 µM (active)	0.6 µM (active)
C/C(Cl)=N\OC(=O)Nc1ccc(C)cc1	16.6 µM (inactive)	> 10 µM (inactive)	19.1 µM (inactive)	19.7 µM (inactive)	14.5 µM (inactive)	18.7 µM (inactive)	16.3 µM (inactive)		20.3 µM (inactive)		20.7 µM (inactive)	28.6 µM (inactive)	18.1 µM (inactive)	9.64 µM (inactive)	15.8 µM (inactive)
COc1ccc(/C=C/C(=N/NC(=O)N/N=C(/C=C/c2ccc(OC)cc2)C(C)(C)CN2CCCCC2)C(C)(C)CN2CCCCC2)cc1	1.87 µM (inactive)	> 10 µM (inactive)	1.33 µM (inactive)	1.97 µM (inactive)	1.56 µM (inactive)	2.28 µM (inactive)	1.85 µM (inactive)			1.5 µM (inactive)	1.47 µM (inactive)	1.87 µM (inactive)	1.65 µM (inactive)	0.234 µM (active)	2.28 µM (inactive)
CCOP(C)(=O)C(Cc1c[nH]c2ccccc12)C(=O)O (centres undefined)	> 100 µM (inactive)	> 100 µM (inactive)	> 100 µM (inactive)	> 100 µM (inactive)	> 100 µM (inactive)	> 100 µM (inactive)	> 100 µM (inactive)	> 100 µM (inactive)	> 100 µM (inactive)		> 100 µM (inactive)			> 100 µM (inactive)	> 100 µM (inactive)
CCCNC(=O)OCc1c(COC(=O)NCCC)c(-c2ccc(Cl)c(Cl)c2)n2c1CCC2	2.95 µM (inactive)	7 µM (inactive)	5.09 µM (inactive)	3.89 µM (inactive)		3 µM (inactive)	4.98 µM (inactive)	11.5 µM (inactive)	4.84 µM (inactive)	1.58 µM (inactive)	2.52 µM (inactive)	6.56 µM (inactive)	3.57 µM (inactive)		8.59 µM (inactive)
N#Cc1nc(COCCOCc2ccc(F)cc2)oc1N	> 100 µM (inactive)	> 100 µM (inactive)	> 100 µM (inactive)	> 100 µM (inactive)	> 100 µM (inactive)	> 100 µM (inactive)	> 100 µM (inactive)	> 100 µM (inactive)	> 100 µM (inactive)	> 100 µM (inactive)			> 100 µM (inactive)	> 100 µM (inactive)	> 100 µM (inactive)
Cc1cc(C)n(-c2nc3ccccc3c(=O)n2-c2ccccc2)n1	> 100 µM (inactive)	> 100 µM (inactive)	> 100 µM (inactive)	> 100 µM (inactive)	> 100 µM (inactive)	> 100 µM (inactive)	> 100 µM (inactive)	> 100 µM (inactive)	> 100 µM (inactive)	> 100 µM (inactive)			> 100 µM (inactive)	> 100 µM (inactive)	> 100 µM (inactive)
COc1ccc(C(SCCO)(c2ccccc2)c2ccc(OC)cc2)cc1	4.36 µM (inactive)	15.5 µM (inactive)	8.41 µM (inactive)	15.9 µM (inactive)	16.3 µM (inactive)	14.7 µM (inactive)	4.46 µM (inactive)	5.65 µM (inactive)	9.64 µM (inactive)	13.6 µM (inactive)	14.6 µM (inactive)	11.1 µM (inactive)	4.61 µM (inactive)		14.5 µM (inactive)
CC(C)(C)OC(=O)CC(NC(=O)OC(C)(C)C)C(=O)NC(C(=O)O)C(O)c1ccccc1 (centres undefined)	> 100 µM (inactive)	> 100 µM (inactive)	79.1 µM (inactive)	> 100 µM (inactive)	> 100 µM (inactive)	> 100 µM (inactive)	77.6 µM (inactive)	> 100 µM (inactive)	65.2 µM (inactive)	13.9 µM (inactive)		70.8 µM (inactive)	69.7 µM (inactive)		91.4 µM (inactive)
